Tests used:
Androgen receptor (AR) = biological target: T1, Androgen receptor (AR) (Homo sapiens, UniProt P10275); assay: Androgen receptor (AR) reporter gene assay (ARE Luc); format: cell-based; conditions: AR+ARE/Luc HEK293T cells, with 11-KDHT, 24h incubation, Bright-Lite luminescence
T1 construct: expressed in transfected cells; host or cells: AR+ARE/Luc HEK293T cells
T1 sequence (P10275 1-920): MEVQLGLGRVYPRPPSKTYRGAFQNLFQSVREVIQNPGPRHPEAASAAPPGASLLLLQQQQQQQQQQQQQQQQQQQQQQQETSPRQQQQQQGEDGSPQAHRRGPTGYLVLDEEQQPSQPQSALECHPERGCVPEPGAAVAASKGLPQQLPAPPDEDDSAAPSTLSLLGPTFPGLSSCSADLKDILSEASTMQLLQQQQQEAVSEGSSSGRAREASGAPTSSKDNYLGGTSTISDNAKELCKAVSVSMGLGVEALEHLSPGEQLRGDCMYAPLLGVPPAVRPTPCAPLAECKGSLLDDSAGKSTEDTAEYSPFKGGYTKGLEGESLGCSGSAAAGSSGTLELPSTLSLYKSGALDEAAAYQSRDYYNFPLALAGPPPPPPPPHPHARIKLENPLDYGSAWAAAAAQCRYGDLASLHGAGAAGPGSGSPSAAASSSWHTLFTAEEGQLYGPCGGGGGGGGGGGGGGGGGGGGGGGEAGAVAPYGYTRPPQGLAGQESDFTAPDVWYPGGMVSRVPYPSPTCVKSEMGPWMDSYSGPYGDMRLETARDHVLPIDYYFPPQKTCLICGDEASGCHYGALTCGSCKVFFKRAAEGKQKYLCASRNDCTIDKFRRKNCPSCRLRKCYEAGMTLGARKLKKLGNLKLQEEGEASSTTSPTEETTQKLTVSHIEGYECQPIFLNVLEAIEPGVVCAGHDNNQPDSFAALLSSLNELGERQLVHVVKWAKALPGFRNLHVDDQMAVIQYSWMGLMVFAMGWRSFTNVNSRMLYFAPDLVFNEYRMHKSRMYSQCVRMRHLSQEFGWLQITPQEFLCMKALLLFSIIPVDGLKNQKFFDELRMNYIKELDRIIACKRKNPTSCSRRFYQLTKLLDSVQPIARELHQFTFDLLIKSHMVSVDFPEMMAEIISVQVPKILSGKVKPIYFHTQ
Experimental: Experimental Methods: 1. The described compounds were dissolved in 100% DMSO at a final concentration of 10 mM. 100 nL each of 400X compound to be tested and 400X 11-KDHT (40 nM) represtively were added to a 384-well assay plate with Echo, followed by 20 µL of complete medium, and centrifuged at 1000 rpm for 1 min, and oscillated for 20-30 min at room temperature. 2. 20 µL of AR+ARE/Luc HEK293T cells (10,000 cells/well) were inoculated into the assay plate containing the compounds and 11-KDHT, and centrifuged at 1000 rpm for 1 min. The assay plate was incubated in a 37 °C CO2 incubator for 24h. 3. 40 µL of Bright-Lite assay reagent was transferred to each well of the assay plate, centrifuged at 1000 rpm for 1 min, and shaken for 2 min at room temperature protected from light. 4. Luminescence values (RLU) were measured using Envision. […] Table 1. AR inhibition of Representative Compounds

AR-V7 = biological target: T2, AR-V7 (Homo sapiens, UniProt P10275); assay: AR degradation experiment (AR-V7-HiBiT, Nano-Glo HiBiT Lytic Detection); format: cell-based; conditions: 22RV1 cells stably expressing AR-V7-HiBiT, 24 hr at 37 °C; concentration required for degradation 50% of the target protein
T2 construct: fusing HiBiT tag (PromegaTM) into the C-terminus of the AR-V7 genome of 22RV1 cells; host or cells: 22RV1 cells, CRISPR/Cas9 knock-in of HiBiT at the AR-V7 C-terminus
T2 sequence (P10275 1-644 isoform P10275-3): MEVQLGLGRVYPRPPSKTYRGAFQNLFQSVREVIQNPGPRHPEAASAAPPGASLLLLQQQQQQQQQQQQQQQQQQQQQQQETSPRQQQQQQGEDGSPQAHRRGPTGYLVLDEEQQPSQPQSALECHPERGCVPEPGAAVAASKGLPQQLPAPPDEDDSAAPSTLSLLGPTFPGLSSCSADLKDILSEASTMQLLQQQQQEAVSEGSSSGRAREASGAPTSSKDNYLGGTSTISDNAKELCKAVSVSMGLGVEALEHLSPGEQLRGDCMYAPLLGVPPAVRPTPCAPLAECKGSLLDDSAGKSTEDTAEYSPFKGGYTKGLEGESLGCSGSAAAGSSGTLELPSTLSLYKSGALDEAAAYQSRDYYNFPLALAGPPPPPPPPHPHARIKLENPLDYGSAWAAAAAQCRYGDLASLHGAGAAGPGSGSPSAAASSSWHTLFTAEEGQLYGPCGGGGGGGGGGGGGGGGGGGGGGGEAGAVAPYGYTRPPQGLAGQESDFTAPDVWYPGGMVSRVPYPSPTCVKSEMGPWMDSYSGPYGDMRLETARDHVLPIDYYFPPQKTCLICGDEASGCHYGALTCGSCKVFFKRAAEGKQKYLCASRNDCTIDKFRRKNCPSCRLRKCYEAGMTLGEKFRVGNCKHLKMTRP
Experimental: In this experiment, cells stably expressing AR-V7-HiBiT was constructed by fusing HiBiT tag (PromegaTM) into the C-terminus of the AR-V7 genome of 22RV1 cells (ATCC) using CRISPR/Cas9 technology. The concentration of test compounds started from 1000 nM, and diluted with DMSO by 3-fold gradient for 11 points. […]

Row | SMILES | IC50 (Androgen receptor (AR)) [nM] | DC50 (AR-V7) [nM]
1 | N#Cc1cc2c(c(Cl)c1OCCCl)CCCC2Nc1ccc(OCOCNc2cccc3c2C(=O)N(C2CCC(=O)NC2=O)C3=O)nc1 (stereo not shown) [HANT-362] | 913 | 
2 | N#Cc1cc2c(c(Cl)c1OCCCl)CCCC2c1cnc2c(cnn2CCOCCOc2ccc3c(c2)C(=O)N(C2CCC(=O)NC2=O)C3=O)c1 (stereo not shown) [HANT-515] | 754 | 
3 | CCOc1c(C#N)cc2c(c1Cl)CCCC2c1cnc(NCCOC2CN(c3ccc4c(c3)C(=O)N(C3CCC(=O)NC3=O)C4=O)C2)nc1 (stereo not shown) [HANT-431, 4-chloro-8-(2-((2-(2-(1-(2-(2,6-dioxopiperidin-3-yl)-1,3-dioxoisoindol-5-yl)azetidin-3-yl)oxy)ethyl)amino)pyrimidin-5-yl)-3-ethoxy-5,6,7,8-tetrahydronaphthalene-2-carbonitrile] | 744 | 
4 | N#Cc1cc2c(c(Cl)c1OCCCl)CCCC2Nc1ccc(OCOCNc2ccc3c(c2)C(=O)N(C2CCC(=O)NC2=O)C3=O)nc1 (stereo not shown) [HANT-328] | 1830 | 
5 | N#Cc1cc2c(c(Cl)c1OCCCl)CCCC2c1cnc(N2CC(OCCOc3ccc4c(c3)C(=O)N(C3CCC(=O)NC3=O)C4=O)C2)nc1 (stereo not shown) [HANT-519] | 23 | 
6 | N#Cc1cc2c(c(Cl)c1OCCCl)CCCC2c1ccc(OCCCCOc2ccc3c(c2)C(=O)N(C2CCC(=O)NC2=O)C3=O)nc1 (stereo not shown) [HANT-338] | 657 | > 10000
7 | N#Cc1cc2c(c(Cl)c1OCCCl)CCCC2c1ccc(OC2CCC(Oc3ccc4c(c3)C(=O)N(C3CCC(=O)NC3=O)C4=O)CC2)nc1 (stereo not shown) [HANT-517] | 575 | 
8 | N#Cc1cc2c(c(Cl)c1OCCCl)CCCC2Nc1ccc(OCCCCNc2ccc3c(c2)C(=O)N(C2CCC(=O)NC2=O)C3=O)nc1 (stereo not shown) [HANT-331, 4-chloro-3-(2-chloroethoxy)-8-((6-(4-(2-(2,6-dioxopiperidin-3-yl)-1,3-dioxoisoindolin-5-yl)amino)butoxy)pyridin-3-amino)-5,6,7,8-tetrahydronaphthalene-2-carbonitrile] | 822 | > 10000
9 | N#Cc1cc2c(c(Cl)c1OCCCl)CCC[C@@H]2c1cnc(NCCOCCOc2ccc3c(c2)C(=O)N(C2CCC(=O)NC2=O)C3=O)nc1 (stereo partly shown) [HANT-315-P2] | 3870 | 
10 | N#Cc1cc2c(c(Cl)c1OCCCl)CCCC2c1ccc(N2CC(OCCOc3ccc4c(c3)C(=O)N(C3CCC(=O)NC3=O)C4=O)C2)nc1 (stereo not shown) [HANT-513] | 7.6 | 
11 | N#Cc1cc2c(c(Cl)c1OCCCl)CCCC2c1ccc(N2CCC(OCCOc3ccc4c(c3)C(=O)N(C3CCC(=O)NC3=O)C4=O)CC2)nc1 (stereo not shown) [HANT-514] | 73 | 

Second part, the compound after the results:

Row | IC50 (Androgen receptor (AR)) [nM] | DC50 (AR-V7) [nM] | SMILES
12 | 476 |  | N#Cc1cc2c(c(Cl)c1OCCCl)CCCC2c1cnc(N2CCC(OC3CN(c4ccc5c(c4)C(=O)N(C4CCC(=O)NC4=O)C5=O)C3)CC2)nc1 (stereo not shown) [HANT-390]
13 | 428 |  | N#Cc1cc2c(c(Cl)c1OCCCl)CCCC2c1cnc(N2CCC(OCCNc3ccc4c(c3)C(=O)N(C3CCC(=O)NC3=O)C4=O)C2)nc1 (stereo not shown) [HANT-393]
14 | 292 | 284 | N#Cc1cc2c(c(Cl)c1OCCCl)CCCC2c1cnc(N2CCC(OCCCOc3ccc4c(c3)C(=O)N(C3CCC(=O)NC3=O)C4=O)CC2)nc1 (stereo not shown) [HANT-371, 4-chloro-3-(2-chloroethoxy)-8-(2-(4-(3-((2-(2,6-dioxopiperidin-3-yl)-1,3-dioxoisoindol-5-yl)oxy)propoxy)piperidin-1-yl)pyrimidin-5-yl)-5,6,7,8-tetrahydronaphthalene-2-carbonitrile]
15 | 209 |  | N#Cc1cc2c(c(Cl)c1OCCCl)CCCC2c1ccc(OC2CCC(OCCOc3ccc4c(c3)C(=O)N(C3CCC(=O)NC3=O)C4=O)CC2)nc1 (stereo not shown) [HANT-518]
16 | 21 | 13 | CCOc1c(C#N)cc2c(c1Cl)CCCC2c1cnc(NCCOCCOc2ccc3c(c2)C(=O)N(C2CCC(=O)NC2=O)C3=O)nc1 (stereo not shown) [HANT-354]
17 | 318 |  | N#Cc1cc2c(c(Cl)c1OCCCl)CCCC2c1ccc(N2CCC(OCCCOc3ccc4c(c3)C(=O)N(C3CCC(=O)NC3=O)C4=O)CC2)nc1 (stereo not shown) [HANT-512]
18 | 30 | 8.7 | N#Cc1cc2c(c(Cl)c1OCCCl)CCCC2c1cnc(NCCOCCOc2ccc3c(c2)C(=O)N(C2CCC(=O)NC2=O)C3=O)nc1 (stereo not shown) [HANT-315, 4-chloro-3-(2-chloroethoxy)-8-(2-(2-(2-(2,6-dioxopiperidin-3-yl)-1,3-dioxoisoindolin-5-yl)oxy)ethoxy-amino)pyrimidin-5-yl-5,6,7,8-tetrahydronaphthalene-2-carbonitrile]
19 | 27 | 40 | N#Cc1cc2c(c(Cl)c1OCCCl)CCCC2c1cnc(N2CCC(OCCOc3ccc4c(c3)C(=O)N(C3CCC(=O)NC3=O)C4=O)CC2)nc1 (stereo not shown) [HANT-342]
20 | 569 |  | N#Cc1cc2c(c(Cl)c1OCCCl)CCCC2c1ccc(OCCCNc2ccc3c(c2)C(=O)N(C2CCC(=O)NC2=O)C3=O)nc1 (stereo not shown) [HANT-339]
21 | 29 | 24 | N#Cc1cc2c(c(Cl)c1OCCCl)CCCC2c1ccc(NCCOCCOc2ccc3c(c2)C(=O)N(C2CCC(=O)NC2=O)C3=O)nc1 (stereo not shown) [HANT-346]
22 | 32 |  | N#Cc1cc(C2CCCc3c2cc(C#N)c(OCCCl)c3Cl)cnc1N1CC(OCCOc2ccc3c(c2)C(=O)N(C2CCC(=O)NC2=O)C3=O)C1 (stereo not shown) [HANT-516]
23 | 2 | 4.3 | N#Cc1cc2c(c(Cl)c1OCCCl)CCC[C@H]2c1cnc(NCCOCCOc2ccc3c(c2)C(=O)N(C2CCC(=O)NC2=O)C3=O)nc1 (stereo partly shown) [HANT-315-P1]
24 | 377 |  | CCOc1c(C#N)cc2c(c1Cl)CCCC2Nc1ccc(OCCCNc2ccc3c(c2)C(=O)N(C2CCC(=O)NC2=O)C3=O)nc1 (stereo not shown) [HANT-312, 4-chloro-8-(6-(3-((2-(2,6-dioxopiperidin-3-yl)-1,3-dioxoisoindolin-5-yl)amino)propoxy)pyridin-3-ylamino)-3-ethoxy-5,6,7,8-tetrahydronaphthalene-2-carbonitrile]
25 | 123 |  | N#Cc1cc2c(c(Cl)c1OCCCl)CCCC2Nc1ccc(OCNc2ccc3c(c2)C(=O)N(C2CCC(=O)NC2=O)C3=O)nc1 (stereo not shown) [HANT-329]
26 | 490 |  | N#Cc1cc2c(c(Cl)c1OCCCl)CCCC2c1cnc(NCCCNc2ccc3c(c2)C(=O)N(C2CCC(=O)NC2=O)C3=O)nc1 (stereo not shown) [HANT-314]

From patent EP4722206A1, “BENZO(HETERO)CYCLOALKYL COMPOUNDS FOR ANDROGEN RECEPTOR-DEPENDENT DISEASES” (Haihe Biopharma Co., Ltd., priority 2023, dated 2024)
